Experiment: water solubility
Assay type: physicochemical

With `CCCCP(=N)(CCCC)CCCC` [tributylphosphinimine] the solubility in water was “soluble in water”.

From patent US5601800A, “New multifunctional ligands for potential use in the design therapeutic or diagnostic radiopharmaceutical imaging agents” (Curators of the University of Missouri, priority 1994, dated 1997)
